#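 Exposure lasted 48 hours, with cells grown in 96-well plates and compounds tested at five concentrations. The concentration for 50% growth inhibition is given as GI50.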 Activity calls are given as the source filed them. Rule as the data show it: active = GI50 up to about 1.1 µM and inactive = higher.
# Legend:
# Test in all cases: NCI anticancer screen, dose series, 48 h
# HCC 2998 = test system: HCC 2998
# MDA-N = test system: MDA-N
# KM12 = test system: KM12
# SF-295 = test system: SF-295
# SK-OV-3 = test system: SK-OV-3
# UACC-62 = test system: UACC-62
# A498 = test system: A498
# OVCAR-4 = test system: OVCAR-4
# 786-0 = test system: 786-0
# CAKI-1 = test system: CAKI-1
# UACC-257 = test system: UACC-257
# SF-268 = test system: SF-268
# HOP-92 = test system: HOP-92
# EKVX = test system: EKVX
# A549 = test system: A549
# COLO 205 = test system: COLO 205
# CCRF-CEM = test system: CCRF-CEM
# SK-MEL-28 = test system: SK-MEL-28
# MOLT-4 = test system: MOLT-4
# OVCAR-5 = test system: OVCAR-5
SMILES,GI50 (HCC 2998),GI50 (MDA-N),GI50 (KM12),GI50 (SF-295),GI50 (SK-OV-3),GI50 (UACC-62),GI50 (A498),GI50 (OVCAR-4),GI50 (786-0),GI50 (CAKI-1),GI50 (UACC-257),GI50 (SF-268),GI50 (HOP-92),GI50 (EKVX),GI50 (A549),GI50 (COLO 205),GI50 (CCRF-CEM),GI50 (SK-MEL-28),GI50 (MOLT-4),GI50 (OVCAR-5)
C=C1CC2(C[C@@H](c3ccccc3)O[C@@H](c3ccccc3)C2)OC1=O (stereo not given in full),6.7 µM (inactive),2.28 µM (inactive),4.39 µM (inactive),13.6 µM (inactive),14.5 µM (inactive),2.51 µM (inactive),9.95 µM (inactive),5.7 µM (inactive),2.59 µM (inactive),1.97 µM (inactive),3.35 µM (inactive),7.31 µM (inactive),5.22 µM (inactive),13 µM (inactive),5.89 µM (inactive),2.03 µM (inactive),1.71 µM (inactive),1.86 µM (inactive),1.95 µM (inactive),13.3 µM (inactive)
CCN(CCO)CC1COc2ccccc2O1 (stereo not given),> 100 µM (inactive),> 100 µM (inactive),> 100 µM (inactive),> 100 µM (inactive),> 100 µM (inactive),> 100 µM (inactive),> 100 µM (inactive),> 100 µM (inactive),> 100 µM (inactive),> 100 µM (inactive),> 100 µM (inactive),> 100 µM (inactive),> 100 µM (inactive),> 100 µM (inactive),> 100 µM (inactive),> 100 µM (inactive),> 100 µM (inactive),> 100 µM (inactive),> 100 µM (inactive),> 100 µM (inactive)
CCCC(=O)N1CCN(c2ccc3c(c2)OC(C)O3)CC1 (stereo not given),> 100 µM (inactive),> 100 µM (inactive),> 100 µM (inactive),> 100 µM (inactive),> 100 µM (inactive),> 100 µM (inactive),> 100 µM (inactive),> 100 µM (inactive),> 100 µM (inactive),> 100 µM (inactive),> 100 µM (inactive),> 100 µM (inactive),> 100 µM (inactive),> 100 µM (inactive),> 100 µM (inactive),> 100 µM (inactive),> 100 µM (inactive),> 100 µM (inactive),> 100 µM (inactive),> 100 µM (inactive)
O=S(=O)(NC1OCCCC1I)c1ccccc1 (stereo not given),> 100 µM (inactive),> 100 µM (inactive),> 100 µM (inactive),> 100 µM (inactive),> 100 µM (inactive),> 100 µM (inactive),> 100 µM (inactive),89.7 µM (inactive),> 100 µM (inactive),> 100 µM (inactive),> 100 µM (inactive),> 100 µM (inactive),> 100 µM (inactive),> 100 µM (inactive),> 100 µM (inactive),> 100 µM (inactive),68.4 µM (inactive),> 100 µM (inactive),> 100 µM (inactive),> 100 µM (inactive)
CC(=O)N1C(CCc2ccccc2)CC(C)(C=O)C1Cc1ccc(O[Si](C(C)C)(C(C)C)C(C)C)cc1 (stereo not given),1.31 µM (inactive),2.39 µM (inactive),3.02 µM (inactive),5.11 µM (inactive),13.4 µM (inactive),4.68 µM (inactive),2.87 µM (inactive),3.7 µM (inactive),2.38 µM (inactive),3.05 µM (inactive),5.11 µM (inactive),4.19 µM (inactive),9.71 µM (inactive),4.75 µM (inactive),3.87 µM (inactive),2.93 µM (inactive),1.87 µM (inactive),6.32 µM (inactive),1.06 µM (active),14.7 µM (inactive)
Cc1ccc(/N=N/c2ccc(O)c(CN(C)C)c2)cc1C,16.4 µM (inactive),38.9 µM (inactive),16.9 µM (inactive),40.7 µM (inactive),45 µM (inactive),17.1 µM (inactive),22.3 µM (inactive),43.4 µM (inactive),34.4 µM (inactive),25.6 µM (inactive),23.1 µM (inactive),27.9 µM (inactive),26.8 µM (inactive),20.6 µM (inactive),34.7 µM (inactive),11.9 µM (inactive),24 µM (inactive),5.47 µM (inactive),16.6 µM (inactive),31.8 µM (inactive)
O=C1CC2OCC=C3CN4CCC5(C(=O)O)C(N1)C2C3CC45 (stereo not given),> 100 µM (inactive),> 100 µM (inactive),> 100 µM (inactive),> 100 µM (inactive),> 100 µM (inactive),> 100 µM (inactive),> 100 µM (inactive),> 100 µM (inactive),> 100 µM (inactive),> 100 µM (inactive),> 100 µM (inactive),> 100 µM (inactive),> 100 µM (inactive),> 100 µM (inactive),> 100 µM (inactive),> 100 µM (inactive),> 100 µM (inactive),> 100 µM (inactive),> 100 µM (inactive),> 100 µM (inactive)
CCCCCCCC(=O)OC[n+]1cccc(-c2c(COC(=O)NC(C)C)c(COC(=O)NC(C)C)c3n2CCC3)c1,> 100 µM (inactive),> 100 µM (inactive),> 100 µM (inactive),> 84.1 µM (inactive),> 100 µM (inactive),38.1 µM (inactive),35.3 µM (inactive),> 100 µM (inactive),40 µM (inactive),18.9 µM (inactive),> 100 µM (inactive),> 55.8 µM (inactive),44.8 µM (inactive),> 100 µM (inactive),> 96.2 µM (inactive),> 87.7 µM (inactive),21.2 µM (inactive),> 100 µM (inactive),20.1 µM (inactive),> 100 µM (inactive)
O=C(N/N=C\c1ccc([N+](=O)[O-])s1)c1ccncc1,5.71 µM (inactive),14.1 µM (inactive),10 µM (inactive),16.4 µM (inactive),38.5 µM (inactive),10.7 µM (inactive),23.4 µM (inactive),15 µM (inactive),6.67 µM (inactive),27.9 µM (inactive),14.6 µM (inactive),13.6 µM (inactive),15.6 µM (inactive),20.7 µM (inactive),16.7 µM (inactive),2.13 µM (inactive),6.52 µM (inactive),35.3 µM (inactive),19.9 µM (inactive),29.9 µM (inactive)
Clc1ccc(C(c2ccc(Cl)cc2)N2CCNCC2)cc1,1.46 µM (inactive),1.89 µM (inactive),1.77 µM (inactive),2.28 µM (inactive),5.43 µM (inactive),1.77 µM (inactive),1.78 µM (inactive),2.48 µM (inactive),1.77 µM (inactive),4.39 µM (inactive),2.12 µM (inactive),4.95 µM (inactive),3.01 µM (inactive),3.02 µM (inactive),2.74 µM (inactive),1.96 µM (inactive),2.34 µM (inactive),1.81 µM (inactive),1.87 µM (inactive),6.78 µM (inactive)
